Results reported in ChEMBL document CHEMBL1201862, “PubChem BioAssay data set” (2004).
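Test compounds were applied to cells in 96-well plates for 48 hours at 5 doses. Abbreviation: GI50, concentration required for 50% inhibition of growth.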 Calls of active or inactive are those of the source. Cut-off read from the data, not from the text of the source: active = GI50 up to about 1.1 µM and inactive = higher.

Experiments:
Assay in all cases: NCI anticancer screen, dose series, 48 h
786-0 = system: 786-0
CAKI-1 = system: CAKI-1
HCC 2998 = system: HCC 2998
HOP-62 = system: HOP-62
HT-29 = system: HT-29
Hs-578T = system: Hs-578T
M14 = system: M14
MCF7 = system: MCF7
MDA-MB-435 = system: MDA-MB-435
MDA-N = system: MDA-N
MOLT-4 = system: MOLT-4
NCI-H226 = system: NCI-H226
NCI-H460 = system: NCI-H460
SF-295 = system: SF-295
SK-MEL-2 = system: SK-MEL-2
SNB-75 = system: SNB-75
SW-620 = system: SW-620
UO-31 = system: UO-31
SR = system: SR

Row | Compound | GI50 (786-0) | GI50 (CAKI-1) | GI50 (HCC 2998) | GI50 (HOP-62) | GI50 (HT-29) | GI50 (Hs-578T) | GI50 (M14) | GI50 (MCF7) | GI50 (MDA-MB-435) | GI50 (MDA-N) | GI50 (MOLT-4) | GI50 (NCI-H226) | GI50 (NCI-H460) | GI50 (SF-295) | GI50 (SK-MEL-2) | GI50 (SNB-75) | GI50 (SW-620) | GI50 (UO-31) | GI50 (SR)
1 | CCC1=CC2Cc3nc4cc(Cl)ccc4c(N)c3C(C1)C2 (stereo not drawn) | 5.04 µM (inactive) | 2.26 µM (inactive) | 1.51 µM (inactive) | 8.2 µM (inactive) | 3.02 µM (inactive) | 5.08 µM (inactive) | 1.54 µM (inactive) | 3.25 µM (inactive) | 2.94 µM (inactive) | 6.08 µM (inactive) | 0.822 µM (active) | 1.48 µM (inactive) | 4.07 µM (inactive) | 4.45 µM (inactive) | 5.45 µM (inactive) | 6.35 µM (inactive) | 8.91 µM (inactive) | 4.92 µM (inactive) | –
2 | CN(C)CCOc1ccc2[nH]c(C(=O)N3CC(CCl)c4c3cc([N+](=O)[O-])c3ccccc43)cc2c1 (stereo not drawn) | 2.1 µM (inactive) | 2.79 µM (inactive) | – | 1.88 µM (inactive) | 2.15 µM (inactive) | 3.01 µM (inactive) | 2.07 µM (inactive) | 1.76 µM (inactive) | 2 µM (inactive) | 3.68 µM (inactive) | 1.29 µM (inactive) | 54.1 µM (inactive) | 1.77 µM (inactive) | 2.51 µM (inactive) | 2.15 µM (inactive) | 1.85 µM (inactive) | 2.17 µM (inactive) | 15.1 µM (inactive) | 1.72 µM (inactive)
3 | COc1cc(S(=O)(=O)Nc2nc(-c3ccc(N4C(=O)/C(=C/c5ccccc5)N=C4c4ccccc4)cc3)cs2)ccc1Cl | 63.5 µM (inactive) | > 100 µM (inactive) | – | 29 µM (inactive) | 78.3 µM (inactive) | 21 µM (inactive) | 56.4 µM (inactive) | 35.6 µM (inactive) | 46.9 µM (inactive) | 37.3 µM (inactive) | 28.2 µM (inactive) | 62.5 µM (inactive) | > 100 µM (inactive) | > 100 µM (inactive) | 24.6 µM (inactive) | 39.6 µM (inactive) | 55.1 µM (inactive) | > 100 µM (inactive) | 36.1 µM (inactive)
4 | Clc1ccc(Cl)c(NNc2cc(Cl)ccc2Cl)c1 | > 10 µM (inactive) | > 10 µM (inactive) | 7.03 µM (inactive) | > 10 µM (inactive) | > 10 µM (inactive) | > 10 µM (inactive) | > 10 µM (inactive) | 7.74 µM (inactive) | 8.09 µM (inactive) | 5.57 µM (inactive) | > 10 µM (inactive) | > 10 µM (inactive) | 3.66 µM (inactive) | > 10 µM (inactive) | 2.83 µM (inactive) | – | > 10 µM (inactive) | – | 8.81 µM (inactive)
5 | Fc1cccc(F)c1C(Nc1nncs1)Nc1nncs1 | > 100 µM (inactive) | > 100 µM (inactive) | > 100 µM (inactive) | > 100 µM (inactive) | 47.2 µM (inactive) | > 100 µM (inactive) | 59.6 µM (inactive) | 97.7 µM (inactive) | 51.3 µM (inactive) | 38 µM (inactive) | – | > 100 µM (inactive) | > 100 µM (inactive) | > 100 µM (inactive) | > 100 µM (inactive) | > 100 µM (inactive) | 86.7 µM (inactive) | > 100 µM (inactive) | –
6 | O1C2C1C1OC1C1OC1C1OC21 (stereo not drawn) | > 100 µM (inactive) | > 100 µM (inactive) | – | > 100 µM (inactive) | > 100 µM (inactive) | > 100 µM (inactive) | > 100 µM (inactive) | > 100 µM (inactive) | > 100 µM (inactive) | > 100 µM (inactive) | > 100 µM (inactive) | > 100 µM (inactive) | – | > 100 µM (inactive) | > 100 µM (inactive) | 46.6 µM (inactive) | – | > 100 µM (inactive) | > 100 µM (inactive)
7 | CO/N=C1\CCC2(O)C3Cc4ccc(O)c5c4C2(CCN3CC2CC2)[C@H]1O5 (stereo partly drawn) | > 100 µM (inactive) | > 100 µM (inactive) | – | > 100 µM (inactive) | > 100 µM (inactive) | > 100 µM (inactive) | > 100 µM (inactive) | > 100 µM (inactive) | > 100 µM (inactive) | > 100 µM (inactive) | > 100 µM (inactive) | > 100 µM (inactive) | – | > 100 µM (inactive) | > 100 µM (inactive) | – | > 100 µM (inactive) | > 100 µM (inactive) | > 100 µM (inactive)
8 | C=CCNC1=C2C[C@@H](C)C[C@@H](OC)[C@H](OC(=O)CN(C)C)[C@H](C)/C=C(\C)[C@@H](OC(N)=O)[C@H](OC)/C=C\C=C(/C)C(=O)NC(=CC1=O)C2=O | 0.671 µM (active) | 1.29 µM (inactive) | 0.0434 µM (active) | 0.0604 µM (active) | < 0.01 µM (active) | 13.3 µM (inactive) | 0.0485 µM (active) | 0.0245 µM (active) | 0.042 µM (active) | 0.0281 µM (active) | 1.43 µM (inactive) | – | 0.0479 µM (active) | 0.128 µM (active) | 0.0608 µM (active) | 0.114 µM (active) | 0.0228 µM (active) | 0.757 µM (active) | < 0.0113 µM (active)
